Source: article doi:10.1101/2023.11.23.568446v1 (bioRxiv, 2023)
Bridge positions count the residues as written; N and C are the ends. Square brackets hold non-standard residues; d marks the D form. Peptide text beside a SMILES is read from it. * marks the point of attachment. X1 = CC[C@H](C)CCCCC(=O)*; Dab = NCC[C@H](N)C(=O)O

Tests used:
DHA10 (CRAB) = assay: Checkerboard assay; format: cell-based, Acinetobacter baumannii; details: for MIC in combination, Antibiotic: in combination with AIG-R5
A. baumannii ATCC 17978 = assay: Checkerboard assay; format: cell-based, Acinetobacter baumannii; details: for MIC alone, Antibiotic: A. baumannii ATCC 17978
A. baumannii isolates = assay: Antibiotic resistance profile of isolates; format: cell-based, Acinetobacter baumannii
A. baumannii biofilms = details: at 128µM (64×MIC); ref Kim et al., 2018; cited from earlier work

Compound	MIC in combination, Antibiotic (DHA10 (CRAB))	MIC alone, Antibiotic (A. baumannii ATCC 17978)	MIC in combination, Antibiotic (A. baumannii ATCC 17978; in combination with AIG-R1)	MIC in combination, Antibiotic (A. baumannii ATCC 17978; in combination with AIG-R4)	MIC in combination, Antibiotic (A. baumannii ATCC 17978; in combination with AIG-R5)	Antibiotic resistance profile (A. baumannii isolates; strain 17978)	Antibiotic resistance profile (A. baumannii isolates; strain Ci 3)	Antibiotic resistance profile (A. baumannii isolates; strain Ci 6)	Antibiotic resistance profile (A. baumannii isolates; strain Ci 7)	Antibiotic resistance profile (A. baumannii isolates; strain DHA 8)	Antibiotic resistance profile (A. baumannii isolates; strain DHA 10)	Antibiotic resistance profile (A. baumannii isolates; strain P-1119)	Antibiotic resistance profile (A. baumannii isolates; strain P-1131)	Antibiotic resistance profile (A. baumannii isolates; strain P-1139)	Antibiotic resistance profile (A. baumannii isolates; strain P-1169)	Antibiotic resistance profile (A. baumannii isolates; strain P-1182)	MIC alone, Antibiotic (DHA10 (CRAB))	degraded pre-formed biofilms (A. baumannii biofilms)
NCC[C@H](O)C(=O)N[C@@H]1C[C@H](N)[C@@H](O[C@H]2O[C@H](CN)[C@@H](O)[C@H](O)[C@H]2O)[C@H](O)[C@H]1O[C@H]1O[C@H](CO)[C@@H](O)[C@H](N)[C@H]1O [Amikacin]	256 µg/mL	2 µg/mL	0.5 µg/mL	1 µg/mL	0.5 µg/mL	–	–	–	–	–	–	–	–	–	–	–	–	–
CC[C@H](C)CCCCC(=O)N[C@@H](CCN)C(=O)N[C@H](C(=O)N[C@@H](CCN)C(=O)N[C@H]1CCNC(=O)[C@H]([C@@H](C)O)NC(=O)[C@H](CCN)NC(=O)[C@H](CCN)NC(=O)[C@H](CC(C)C)NC(=O)[C@@H](CC(C)C)NC(=O)[C@H](CCN)NC1=O)[C@@H](C)O [Colistin] (X1-[Dab]T[Dab][Dab][Dab][dL]L[Dab][Dab]T; lactam 4-C (inferred); N-terminus assumed)	–	1 µg/mL	0.25 µg/mL	0.25 µg/mL	0.5 µg/mL	S	R	R	R	R	R	R	R	R	R	R	–	–
C[C@@H](O)[C@H]1C(=O)N2C(C(=O)O)=C(SCCN=CN)C[C@H]12 [Imipenem]	–	2 µg/mL	1 µg/mL	1 µg/mL	1 µg/mL	S	R	R	R	R	R	R	R	R	R	R	–	–
NC[C@H]1O[C@H](O[C@H]2[C@H](O)[C@@H](O[C@H]3O[C@H](CO)[C@@H](O)[C@H](N)[C@H]3O)[C@H](N)C[C@@H]2N)[C@H](O)[C@@H](O)[C@@H]1O.O=S(=O)(O)O [Kanamycin sulphate]	–	4 µg/mL	2 µg/mL	2 µg/mL	1 µg/mL	–	–	–	–	–	–	–	–	–	–	–	–	–
C[C@@H](O)[C@H]1C(=O)N2C(C(=O)O)=C(S[C@@H]3CN[C@H](C(=O)N(C)C)C3)[C@H](C)[C@H]12 [Meropenem]	–	–	–	–	–	S	R	R	R	R	R	R	R	R	R	R	–	–
CO[C@H]1/C=C/O[C@@]2(C)Oc3c(C)c(O)c4c(O)c(cc(O)c4c3C2=O)NC(=O)/C(C)=C\C=C\[C@H](C)[C@H](O)[C@@H](C)[C@@H](O)[C@@H](C)[C@H](OC(C)=O)[C@@H]1C [Rifamycin]	–	4 µg/mL	2 µg/mL	2 µg/mL	2 µg/mL	–	–	–	–	–	–	–	–	–	–	–	–	–
NC[C@H]1O[C@H](O[C@H]2[C@H](O)[C@@H](O[C@H]3O[C@H](CO)[C@@H](O)[C@H](N)[C@H]3O)[C@H](N)C[C@@H]2N)[C@H](N)C[C@@H]1O [Tobramycin]	128 µg/mL	2 µg/mL	1 µg/mL	1 µg/mL	0.5 µg/mL	–	–	–	–	–	–	–	–	–	–	–	512 µg/mL	–
magainin 2	–	–	–	–	–	–	–	–	–	–	–	–	–	–	–	–	–	33.3%
